Target: ATX (human His-tagged) (Homo sapiens (Human), UniProt Q13822)
Assay: Human ATX enzyme inhibition assay (fluorescence quenching, MR121 substrate)
Format: biochemical
Conditions: 30 nM ATX, 1 μM MR121 substrate, 30° C., pH 8.0
In short: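 Tris-HCl buffer at pH 8.0 contained 140 mM NaCl, 5 mM KCl, 1 mM each CaCl2 and MgCl2, and 0.01% Triton X-100. The MR121 substrate (1 μM final) was incubated with enzyme for 15 min at 30 °C, and activity was read by fluorescence quenching.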

Row | Compound | IC50 [nM]
1 | O=C(OCc1cc(Cl)cc(Cl)c1)N1C[C@H]2C[C@@H](Nc3ccc4[nH]c(=O)oc4c3)C[C@H]2C1 [Example 5, (3aR,5r,6aS)-3,5-Dichlorobenzyl 5-(2-oxo-2,3-dihydrobenzo[d]oxazol-6-ylamino)hexahydrocyclopenta[c]pyrrole-2(1H)-carboxylate] | 248
2 | O=C(OCc1ccc(F)cc1C(F)(F)F)N1CC[C@@H]2CN(C(=O)c3ccc4[nH]nnc4c3)C[C@H]2C1 (relative stereo) [Example 1.30, trans-2-(1H-benzotriazole-5-carbonyl)-octahydro-pyrrolo[3,4-c]pyridine-5-carboxylic acid 4-fluoro-2-trifluoromethyl-benzyl ester] | 20
3 | O=C(/C=C/c1ccc(-c2ccccc2)cn1)N1C[C@@H]2CN(C(=O)c3ccc4[nH]nnc4c3)C[C@H]2C1 [Example 15.84, (E)-1-[(3aR,6aR)-5-(1H-benzotriazole-5-carbonyl)-hexahydro-pyrrolo[3,4-c]pyrrol-2-yl]-3-(5-phenyl-pyridin-2-yl)-prop-2-en-1-one] | 12
4 | O=C(CCc1ccc(OC(F)(F)F)cc1)N1C[C@@H]2CN(C(=O)c3ccc4[nH]nnc4c3)C[C@@H]2C1 [Example 15.13] | 114
5 | O=C(/C=C/c1ccc(OC(F)(F)F)c(F)c1)N1CC[C@@H]2CN(C(=O)c3ccc4[nH]nnc4c3)C[C@@H]2CC1 [Example 1.15, (E)-1-((3aR,8aS)-2-(1H-benzo[d][1,2,3]triazole-5-carbonyl)octahydropyrrolo[3,4-d]azepin-6(7H)-yl)-3-(3-fluoro-4-(trifluoromethoxy)phenyl)prop-2-en-1-one] | 1
6 | O=C(/C=C/c1ccc(OC(F)(F)F)cc1)N1C[C@@H]2CN(C(=O)c3ccc4[nH]nnc4c3)CC[C@H]2C1 (single isomer, unassigned) [Example 15.26] | 8
7 | N#Cc1ccc(/C=C/C(=O)N2CC[C@@H]3CN(C(=O)c4ccc5[nH]nnc5c4)C[C@@H]3CC2)c(F)c1 [Example 15.34] | 3
8 | O=C(OCc1ccc(OC(F)(F)F)cc1)N1C[C@@H]2CN(C(=O)c3ccc4[nH]nnc4n3)C[C@H]2C1 [Example 4.42, (3aS,6aS)-5-(1H-[1,2,3]triazolo[4,5-b]pyridine-5-carbonyl)-hexahydro-pyrrolo[3,4-c]pyrrole-2-carboxylic acid 4-trifluoromethoxy-benzyl ester] | 24
9 | CC(C)c1cc(C#N)ccc1OCC(=O)N1CC[C@@H]2CN(C(=O)c3ccc4[nH]nnc4c3)C[C@@H]2CC1 [Example 1.43, 4-[2-[(3aS,8aR)-2-(1H-benzotriazole-5-carbonyl)-1,3,3a,4,5,7,8,8a-octahydropyrrolo[3,4-d]azepin-6-yl]-2-oxoethoxy]-3-propan-2-ylbenzonitrile] | 14
10 | O=C(OCc1ccc(C(F)(F)F)cc1C1CC1)N1CC[C@@H]2CN(C(=O)c3ccc4[nH]nnc4c3)C[C@H]2C1 (relative stereo) [Example 1.31, trans-2-(1H-benzotriazole-5-carbonyl)-octahydro-pyrrolo[3,4-c]pyridine-5-carboxylic acid 2-cyclopropyl-4-trifluoromethyl-benzyl ester] | 21
11 | O=C(COc1cc(Cl)ccc1C(F)(F)F)N1CC[C@@H]2CN(C(=O)c3ccc4[nH]nnc4c3)C[C@@H]2CC1 [Example 1.41, 1-((3aR,8aS)-2-(1H-benzo[d][1,2,3]triazole-5-carbonyl)octahydropyrrolo[3,4-d]azepin-6(7H)-yl)-2-(5-chloro-2-(trifluoromethyl)phenoxy)ethanone] | 2
12 | N#Cc1cc(Cl)cc(/C=C/C(=O)N2C[C@@H]3CN(C(=O)c4ccc5[nH]nnc5c4)C[C@H]3C2)c1 [Example 15.50] | 6
13 | O=C(/C=C/c1ccc(OC(F)(F)F)cc1)N1CC[C@@H]2CN(C(=O)N3CCn4nc(C(F)(F)F)nc4C3)C[C@@H]2CC1 [Example 8.07] | 1840
14 | O=C(c1ccc2[nH]nnc2c1)N1C[C@@H]2CN(C(=O)c3cc4cc(Cl)ccc4[nH]3)C[C@@H]2C1 [Example 15.01] | 1620
15 | COc1cc(Cl)cc(/C=C/C(=O)N2C[C@@H]3CN(C(=O)c4ccc5[nH]nnc5c4)C[C@H]3C2)c1 [Example 15.49] | 16
16 | O=C(OCc1cc(Cl)cc(Cl)c1)N1C[C@H]2CN(Cc3ccc4[nH]c(=O)oc4c3)C[C@H]2C1 [Example 6.03] | 531
17 | O=C(c1ccc2ccccc2c1)N1C[C@@H]2CN(C(=O)c3ccc4[nH]nnc4c3)C[C@H]2C1 [Example 19.06, (1H-benzotriazol-5-yl)-[(3aR,6aR)-5-(naphthalene-2-carbonyl)-hexahydro-pyrrolo[3,4-c]pyrrol-2-yl]-methanone] | 250
18 | O=C(OCc1ccc(OC(F)(F)F)c(F)c1)N1C[C@@H]2CN(C(=O)c3ccc4[nH]nnc4n3)C[C@H]2C1 [Example 4.40, (3aS,6aS)-5-(1H-[1,2,3]triazolo[4,5-b]pyridine-5-carbonyl)-hexahydro-pyrrolo[3,4-c]pyrrole-2-carboxylic acid 3-fluoro-4-trifluoromethoxy-benzyl ester] | 16
19 | O=C(c1ccc(-c2ccc(Cl)cc2)cc1)N1C[C@@H]2CN(C(=O)[C@@H]3CCc4[nH]nnc4C3)C[C@H]2C1 [Example 19.11, [(3aS,6aS)-5-(4′-chloro-biphenyl-4-carbonyl)-hexahydro-pyrrolo[3,4-c]pyrrol-2-yl]-(R)-4,5,6,7-tetrahydro-1H-benzotriazol-5-yl-methanone] | 8
20 | O=C(OCc1cc(Cl)cc(Cl)c1)N1C[C@@H]2CN(C(=O)c3ccc4[nH]ccc4c3)C[C@@H]2C1 [Example 1.05, (3aR,6aS)-3,5-dichlorobenzyl 5-(1H-indole-5-carbonyl)hexahydropyrrolo[3,4-c]pyrrole-2(1H)-carboxylate] | 90
21 | O=C(/C=C/c1cccc(Cl)c1)N1CC[C@@H]2CN(C(=O)c3ccc4[nH]nnc4c3)C[C@@H]2CC1 [Example 15.18] | 20
22 | O=C(OCc1cc(Cl)cc(Cl)c1)N1C[C@@H]2CN(S(=O)(=O)c3ccc4[nH]c(=O)oc4c3)C[C@@H]2C1 [Example 7, (3aR,6aS)-3,5-Dichlorobenzyl 5-(2-oxo-2,3-dihydrobenzo[d]oxazol-6-ylsulfonyl)hexahydropyrrolo[3,4-c]pyrrole-2(1H)-carboxylate] | 22
23 | O=C(OCc1cc(Cl)cc(Cl)c1)N1C[C@H]2CCN(C(=O)c3ccc4[nH]nnc4c3)C[C@@H]2C1 (relative stereo) [Example 4.10, trans-3,5-dichlorobenzyl 5-(1H-benzo[d][1,2,3]triazole-5-carbonyl)hexahydro-1H-pyrrolo[3,4-c]pyridine-2(3H)-carboxylate] | 4
24 | O=C(/C=C/c1ccc(Cl)cc1)N1CC[C@@H]2CN(C(=O)c3ccc4[nH]nnc4c3)C[C@@H]2CC1 [Example 15.06] | 12
25 | O=C(/C=C/c1cccc(OC(F)(F)F)c1)N1C[C@H]2CCN(C(=O)c3ccc4[nH]nnc4c3)CC[C@H]2C1 [Example 15.20] | 49
26 | CC(C)c1cc(C#N)ccc1CCC(=O)N1C[C@@H]2CN(C(=O)c3ccc4[nH]nnc4c3)C[C@H]2C1 [Example 19.22, 4-[3-[(3aR,6aR)-5-(1H-benzotriazole-5-carbonyl)-1,3,3a,4,6,6a-hexahydropyrrolo[3,4-c]pyrrol-2-yl]-3-oxopropyl]-3-propan-2-ylbenzonitrile] | 2

Source: US10669268B2, “Bicyclic derivatives” (Hoffmann-La Roche Inc., priority 2012, dated 2020)
